# Results taken from PMC4708624, “The metabolism and de-bromination of bromotyrosine in vivo” (Free Radical Biology & Medicine, 2016).
# Read-outs that look alike come from different tables or passages of the source.
# Columns and labels:
# [1] = rats; for Molar percentage of the excreted metabolites in 24-h urine (% of infused [D3]bromotyrosine) / Total amounts (nmole) excreted in 24-h urine: intraperitoneal injection of 500 nmole [D3]bromotyrosine
# Experimental: ^13C-Labeled internal standard (5 ng) was added to 20 µl of rat urine and diluted to 1 ml of total volume with 0.1 % (v/v) TFA/water (pH 5.0). The samples were extracted using LC18 reverse phase column, as described above. Bromotyrosine and tyrosine were derivatized with ethyl heptafluorobutyrate and silylated with tert-butyldimethylsilyl, as described, [17], [18]. Derivatized samples were dried under nitrogen, and redissolved in 20 µl of n-undecane. Samples were applied to a GC equipped with a 15-m DB-1701 (J&W Scientific, Folsom, CA) capillary column (0.25-mm internal diameter, […]), interfaced with a mass spectrometer (Trio 1000; Fisons Instruments, Beverly, MA). The ion source and interface temperatures were set at 200 and 320 °C, respectively. Samples were analyzed in negative-ion chemical ionization mode with ammonia as the reagent gas, using 1 µl of each sample for injection. The initial column temperature was maintained at 150 °C for 1 min increasing to 300 °C at 20 °C/min. Ions were monitored at 489, 492, and 498 mass units for authentic, [D3] and [^13C9]bromotyrosine, respectively (Table 1). For measurement of tyrosine, samples were monitored at 407, 410 and 415 m/z for authentic, [D3]tyrosine and [^13C9]tyrosine, respectively. Concentrations were calculated by ratio to known ^13C9-labeled internal standards.
# ^13C-Labeled internal standard (5 ng) was added to 20 µl of rat urine and diluted to 1 ml with 0.1 % (v/v) TFA/water (pH 5.0). The samples were extracted using LC18 reverse-phase column as described above. The samples were derivatized to the pentafluorobenzyl ester by the addition of 20 µl of di-isopropyl ethylamine in acetonitrile and […] of 10 % (v/v) pentafluorobenzyl bromide in acetonitrile for 1 h at room temperature (21–23 °C), dried under nitrogen, and redissolved in […] of n-undecane for GC/MS analysis, [14]. The GC/MS set up was as described above, and ions were monitored at 409, 412, and 417 mass units for authentic, [D3] and [^13C8]bromo-HPA, respectively, with single-ion monitoring (Table 1). For measuring HPA, samples were monitored at 331, 334, and 339 mass units for authentic, [D3] and [^13C8]HPA, respectively. The concentrations were calculated from the known ^13C8-labeled internal standards.
# Male Sprague-Dawley rats (n=3 in each group) were given a single intraperitoneal injection of [D3]bromotyrosine (0.50 µmol). The animals were then transferred to standard metabolic cages, and urine samples were collected for 24 h. The levels of deuterated bromotyrosine, tyrosine, bromo-HPA, and HPA were measured in the collected urine samples, as described above.
# [2] = parameters: method as in PMID 17686770; conditions: deuterium-labeled metabolites after infusion of deuterium-labeled chlorotyrosine ref 9; cited from earlier work
# [3] = target: T1, Iodotyrosine dehalogenase 1 (DEHAL1) (Homo sapiens, UniProt Q6PHW0); experiment: Inhibition of DEHAL1 deiodinase activity (radioiodide formation from [125I]iodotyrosine); type: biochemical; conditions: 0.01–100 μM, 60 min at 37 °C, NADPH, dithiothreitol
# T1 construct: made in house; host or cells: HEK293 cells transfected with DEHAL1 cDNA in pcDNA3.1; used as cell lysate
# T1 sequence (Q6PHW0 1-289): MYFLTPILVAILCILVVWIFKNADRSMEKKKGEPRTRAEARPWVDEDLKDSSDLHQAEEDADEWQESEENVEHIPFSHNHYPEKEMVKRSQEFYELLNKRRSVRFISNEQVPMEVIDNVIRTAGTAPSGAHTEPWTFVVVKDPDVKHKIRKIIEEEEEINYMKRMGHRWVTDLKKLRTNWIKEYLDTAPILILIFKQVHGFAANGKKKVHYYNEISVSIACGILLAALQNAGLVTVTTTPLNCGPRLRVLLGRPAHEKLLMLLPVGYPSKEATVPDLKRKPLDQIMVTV
# Experimental: (§1) Iodotyrosine dehalogenase 1 (DEHAL1) was obtained from HEK293 cells transfected with DEHAL1 cDNA, using a pcDNA3.1 expression vector [9], [19]. To determine whether bromotyrosine, di-bromotyrosine or bromo-HPA interact with iodotyrosine dehalogenase, deiodinase activity was measured based on radioiodide formation from [125I]iodotyrosine. Incubation mixtures contained [125I]iodotyrosine (∼100,000 cpm mixed with 0.1 μM unlabeled iodotyrosine), DEHAL1 enzyme, and varying amounts of iodotyrosine, bromotyrosine, di-bromotyrosine, bromp-HPA and tyrosine (0.01–100 μM final concentration) in 100 μl of PBS containing NADPH (100 μM), EDTA (2 mM), and dithiothreitol (10 mM), [19]. Mixtures were incubated in duplicate for 60 min at 37 °C, and the reactions were stopped by addition of 0.9 ml of 10% acetic acid on ice. The radioiodide in the mixture was separated from the remaining [125I]iodotyrosine with ion exchange chromatography on Dowex columns. The columns were washed with 10 % acetic acid and eluted with 8 ml of 1 mM ammonia solution. Blank incubations without enzyme were used to correct for non-enzymatic deiodination. To determine whether bromotyrosine or di-bromotyrosine could act as a substrate of DEHAL1, the brominated or iodinated tyrosine derivatives (1 μM) were incubated with DEHAL1 in 100 μl of PBS containing NADPH (100 μM), EDTA (2 mM), and dithiothreitol (10 mM). Mixtures were then incubated in duplicate for 60 min at 37 °C, and the reaction was stopped by addition of 1 ml of 10 % acetic acid on ice. Substrate levels were measured using HPLC as described. Cell lysates from HEK293 cells transfected with empty pcDNA3.1 plasmid were used as control. In experiments where di-bromotyrosine, or di-iodotyrosine was used as substrate, concentrations of mono-bromotyrosine and mono-iodotyrosine were measured as a product of de-halogenation.
# [4] = target: T1, Iodotyrosine dehalogenase 1 (DEHAL1); experiment: Dehalogenation of halogenated tyrosines as substrates of DEHAL1 (HPLC); type: biochemical; conditions: for Formation of mono-halogenated tyrosine as product of de-halogenation of the di-halogenated substrate by DEHAL1: di-iodotyrosine or di-bromotyrosine 1 μM as substrate; for Formation of mono-halogenated tyrosine as product of de-halogenation of the di-halogenated substrate by DEHAL1 / Substrate converted by DEHAL1: 60 min at 37 °C; for Substrate converted by DEHAL1: substrate 1 μM, NADPH 100 μM, dithiothreitol 10 mM
# Experimental: as §1
# [5] = Incubation of bromo-HPA with rat liver homogenates; type: in vitro ADME; conditions: data not shown
# [6] = target: T1, Iodotyrosine dehalogenase 1 (DEHAL1); parameters: method as in PMID 17686770; conditions: previous report ref 9; cited from earlier work
# [7] = Identification of urinary metabolites of di-bromotyrosine in vivo (full scan GC/MS); parameters: species or system Sprague-Dawley rats; conditions: rats, intraperitoneal 30 µmol, 24 h urine, compared with tyrosine injected animals
# Experimental: A similar method used by Ohshima et al. was used for identification of urinary metabolites of di-bromotyrosine. […] Urine was collected in metabolic cages for 24 h. Urine samples were acidified to pH 1.0 with HCl and extracted with an equivalent volume of ethyl acetate.
# [8] = tested on: HepG2 cells; conditions: 24 h with 250 nmoles [D3]bromotyrosine (25 µM, 10 ml)
# Experimental: HepG2 cells (ECACC, Wiltshire, UK) were maintained in MEM (minimum Eagle's medium) supplemented with 10% fetal calf serum. Monolayer HepG2 cells were plated in 175 cm^3 vented tissue culture flasks until 70% confluent, when they were incubated with [D3]bromotyrosine (final concentration 25 µM). 24 h after incubation with [D3]bromotyrosine, cells were washed two times with PBS and were detached from the flask using a cell scraper. Detached cells were washed and re-suspended in 2 ml of PBS. Cell suspensions were subjected to protein precipitation by adding 1 ml of ice-cold chloroform/methanol (2:1, v/v) solution. After centrifugation (1000×g for 20 min), protein precipitates were washed with methanol and lyophilized under vacuum for assessment of protein-bound [D3]bromotyrosine and [D3]tyrosine as described [9], [17], [18]. […] The samples were then derivatized with ethyl heptafluorobutyrate and silylated with tert-butyldimethylsilyl, and monitored for ion masses of 492, 498, 410, 415 for [D3]bromotyrosine, [^13C9]bromotyrosine, [D3]tyrosine and [^13C9]tyrosine, respectively (Table 1) using negative-ion chemical ionization GC/MS [9], [17], [18]. […] All data are expressed as mean±standard error.
# [9] = Endogenous bromination of HPA: urine monitoring after intraperitoneal [D6]HPA; type: in vivo; conditions: healthy rats, intraperitoneal injection of [D6]HPA, data not shown
# Excerpt: It is not known, whether or not, bromo-HPA is exclusively derived from the metabolism of bromotyrosine. […] Such reaction may occur for bromotyrosine as well, and needs to be explored in future investigations. Likewise, we previously reported that nitro-HPA is not exclusively derived from nitrotyrosine metabolism, and it is mainly formed by nitration of HPA in both humans and rats, [29]. To determine whether or not bromo-HPA could be formed by endogenous bromination of HPA in healthy rats, deuterium-labeled HPA ([D6]HPA) was synthesized and injected into healthy rats as described. The formation of deuterated bromo-HPA was then monitored in urine samples.
compound,measurement,setting,value
"O=C(O)Cc1ccc(O)cc1 [HPA, 4-hydroxyphenylacetic acid]",Urinary excretion rate relative to un-metabolized bromotyrosine,"[1]; deuterium-labeled metabolites, 500 nmole [D3]bromotyrosine",10.7 fold
same,Urinary excretion rate relative to un-metabolized chlorotyrosine,[2],35.6 fold
"[2H]c1cc(O)c([2H])c([2H])c1CC(=O)O [[D3]HPA, [D3]4-hydroxyphenylacetic acid]",Molar percentage of the excreted metabolites in 24-h urine (% of infused [D3]bromotyrosine),[1],1.33±0.26%
same,Total amounts (nmole) excreted in 24-h urine,[1],6.66 ± 1.33 nmol
same,Molar percentage of the excreted metabolites in 24-h urine (% of infused [D3]bromotyrosine),[1]; listed as [D3]4-hydroxyphenylacetic acid,~ 1.3%
"O=C(O)Cc1ccc(O)c(Br)c1 [bromo-HPA, 3-bromo-4-hydroxyphenylacetic acid]",Inhibition of DEHAL1-induced deiodinase activity,[3],Neither tyrosine nor bromo-HPA showed the ability to inhibit deiodination
same,Formation of de-brominated products on incubation with DEHAL1,[4]; data not shown,not associated with formation of de-brominated products
same,Formation of de-brominated products on incubation with rat liver homogenates,[5],not associated with formation of de-brominated products
"N[C@@H](Cc1ccc(O)c(Br)c1)C(=O)O [bromotyrosine, 3-bromotyrosine]",Inhibition of DEHAL1-induced deiodinase activity,[3],could inhibit DEHAL1-induced deiodinase activity in a concentration-dependent manner
same,Formation of mono-halogenated tyrosine as product of de-halogenation of the di-halogenated substrate by DEHAL1,[4],3%
same,Substrate converted by DEHAL1,[4],18%
"O=C(O)Cc1ccc(O)c(Cl)c1 [chloro-HPA, 3-chloro-4-hydroxyphenylacetic acid]",Urinary excretion rate relative to un-metabolized chlorotyrosine,[2],3.3 fold
"N[C@@H](Cc1ccc(O)c(Cl)c1)C(=O)O [chlorotyrosine, 3-chlorotyrosine]",De-chlorination by DEHAL1 in vitro,[6],unable to show a significant de-chlorination
"N[C@@H](Cc1cc(Br)c(O)c(Br)c1)C(=O)O [di-bromotyrosine, 3,5-di-bromotyrosine]",Inhibition of DEHAL1-induced deiodinase activity,[3],could inhibit DEHAL1-induced deiodinase activity in a concentration-dependent manner
same,Substrate converted by DEHAL1,[4],4%
same,Urinary metabolites identified,[7],di-bromo-HPA and mono-bromo-HPA
"N[C@@H](Cc1cc(I)c(O)c(I)c1)C(=O)O [di-iodotyrosine, reference compound]",Substrate converted by DEHAL1,[4],70%
"N[C@@H](Cc1ccc(O)c(I)c1)C(=O)O [iodotyrosine, reference compound]",Formation of mono-halogenated tyrosine as product of de-halogenation of the di-halogenated substrate by DEHAL1,[4],7%
same,Substrate converted by DEHAL1,[4],83%
N[C@@H](Cc1ccc(O)cc1)C(=O)O [tyrosine],Inhibition of DEHAL1-induced deiodinase activity,[3],Neither tyrosine nor bromo-HPA showed the ability to inhibit deiodination
[D3]tyrosine,Molar percentage of the excreted metabolites in 24-h urine (% of infused [D3]bromotyrosine),[1],Undetectable
same,Total amounts (nmole) excreted in 24-h urine,[1],Undetectable
same,[D3]tyrosine detectable in cellular proteins,[8],6.68 ± 0.52 nmol
[D5]bromo-HPA,Detection of deuterated bromo-HPA in urine,[9],unable to detect
deuterated 3-bromo-4-hydroxyphenylacetic acid [[D3]Bromo-HPA],Molar percentage of the excreted metabolites in 24-h urine (% of infused [D3]bromotyrosine),[1],0.43±0.04%
same,Total amounts (nmole) excreted in 24-h urine,[1],2.15 ± 0.21 nmol
same,Molar percentage of the excreted metabolites in 24-h urine (% of infused [D3]bromotyrosine),[1]; listed as [D3]bromo-HPA,0.43±0.04%
